The pIC50 is the IC50 on a negative log10 scale, so that one unit is a factor of ten.

pIC50: −log10 of the molar value.

The values below come from patent US11827628B2, “Compositions and methods for inhibition of the JAK pathway” (Rigel Pharmaceuticals, Inc., priority 2005, dated 2023).

Assay [1] concerns IL-4 stimulated expression of CD23 in human Ramos B cells (JAK-1 and JAK-3). The assay can be described thus: Assay for Ramos B-Cell Line Stimulated with IL-4 (CD23 upregulation, FACS). The settings on record: Ramos B-cell line stimulated with IL-4; CD23 expression by FACS; read-out: IC50, Example 41. Type of assay: cell-based. The essentials:
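Read-out is surface CD23 by FACS after anti-CD23-PE staining, giving IC50. Before this, cells were stimulated 20-24 h with 50 units/mL (final) human IL-4, following 1 h compound or vehicle pre-treatment at 37 °C; log-phase Ramos B cells, 5×10^4 per well in 5% serum RPMI.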

In assay [2] the test system is up-regulation of ICAM-1 (CD54) by IFNγ in U937 human monocytic cells. Briefly: U937 IFNγ ICAM1 FACS Assay. Type of assay: cell-based. Particulars: U937 cells stimulated with IFNγ; ICAM-1 expression by FACS; read-out: IC50, Example 44. The essentials: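 Readout was the geometric-mean APC anti-ICAM-1 signal by FACS on live U937 monocytic cells, with % live cells also recorded. Cells were exposed to compounds (8 points, 3-fold dilutions, duplicates) for 30 min at 37 °C before 18–24 h of IFNγ stimulation. EC50 values were computed from the dose curve.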

As for `Cc1cc(Nc2nc(Nc3ccc(S(N)(=O)=O)cc3)ncc2F)ccc1OC(C)C#N` (racemic) [Compound I-60, Racemic N2-(4-Aminosulfonyl)phenyl-N4-[4-(1-cyano)ethoxy-3-methyl]phenyl-5-fluoro-2,4-pyrimidinediamine], the pIC50 in assay [1] was 6.99; in assay [2], 6.07. The matching figures for `Cc1cc(Nc2nc(Nc3cccc(S(N)(=O)=O)c3)ncc2F)ccc1OC(C)C#N` (racemic) [Compound I-61, Racemic N2-(3-Aminosulfonyl)phenyl-N4-[4-(1-cyano)ethoxy-3-methyl]phenyl-5-fluoro-2,4-pyrimidinediamine]: 7.34 and 6.37. On the same counts, the results for `Cc1cc(Nc2nc(Nc3ccc(C)c(S(N)(=O)=O)c3)ncc2F)ccc1OC(C)C#N` (racemic) [Compound I-62, Racemic N2-(3-Aminosulfonyl-4-methyl)phenyl-N4-[4-(1-cyano)ethoxy-3-methyl]phenyl-5-fluoro-2,4-pyrimidinediamine] are 7.00 and 6.13. The matching figures for `Cc1cc(Nc2nc(Nc3ccc(S(N)(=O)=O)cc3)ncc2F)cc(C)c1OC(C)C#N` (racemic) [Compound I-63, Racemic N2-(4-Aminosulfonyl)phenyl-N4-[4-(1-cyano)ethoxy-3,5-dimethyl]phenyl-5-fluoro-2,4-pyrimidinediamine]: 6.77 and 6.16. Consider `COc1cc(Nc2ncc(F)c(Nc3ccc(OC(C)C#N)c(C)c3)n2)ccc1S(N)(=O)=O` (racemic) [Compound I-64, Racemic N2-(4-Aminosulfonyl-3-methoxy)phenyl-N4-[4-(1-cyano)ethoxy-3-methyl]phenyl-5-fluoro-2,4-pyrimidinediamine], for which the pIC50 is 6.95 in assay [1] and 5.94 in assay [2].

In the case of `CC(C#N)Oc1ccc(Nc2nc(Nc3cccc(S(N)(=O)=O)c3)ncc2F)cc1` (racemic) [Compound I-65, Racemic N2-(3-Aminosulfonyl)phenyl-N4-[4-(1-cyano)ethoxy]phenyl-5-fluoro-2,4-pyrimidinediamine], the pIC50 in assay [1] was 7.02; in assay [2] it was 6.50. The matching figures for `CC(C#N)Oc1ccc(Nc2nc(Nc3ccc(S(N)(=O)=O)cc3)ncc2F)cc1` (racemic) [Compound I-66, Racemic N2-(4-Aminosulfonyl)phenyl-N4-[4-(1-cyano)ethoxy]phenyl-5-fluoro-2,4-pyrimidinediamine]: 6.99 and 6.16.

In the case of `Cc1ccc(Nc2ncc(F)c(Nc3ccc(OC(C)C#N)cc3)n2)cc1S(N)(=O)=O` (racemic) [Compound I-67, Racemic N2-(3-Aminosulfonyl-4-methyl)phenyl-N4-[4-(1-cyano)ethoxy]phenyl-5-fluoro-2,4-pyrimidinediamine], the pIC50 in assay [1] is 7.48; in assay [2] it was 6.62.

With `CC(C#N)Oc1ccc(Nc2nc(Nc3ccc(F)c(S(N)(=O)=O)c3)ncc2F)cc1` (racemic) [Compound I-68, Racemic N2-(3-Aminosulfonyl-4-fluoro)phenyl-N4-[4-(1-cyano)ethoxy]phenyl-5-fluoro-2,4-pyrimidinediamine], the figures for the pIC50 in assay [1] and in assay [2] were 6.73 and 6.04, respectively. `Cc1cc(Nc2nc(Nc3ccc(F)c(S(N)(=O)=O)c3)ncc2F)ccc1OC(C)C#N` (racemic) [Compound I-69, Racemic N2-(3-Aminosulfonyl-4-fluoro)phenyl-N4-[4-(1-cyano)ethoxy-3-methyl]phenyl-5-fluoro-2,4-pyrimidinediamine]: the pIC50 in assay [1] was 6.93. With `COc1cc(Nc2ncc(F)c(Nc3ccc(OC(C)C#N)cc3)n2)ccc1S(N)(=O)=O` (racemic) [Compound I-70, Racemic N2-(4-Aminosulfonyl-3-methoxy)phenyl-N4-[4-(1-cyano)ethoxy]phenyl-5-fluoro-2,4-pyrimidinediamine], the negative logarithm of the IC50 (pIC50) in assay [1] was 7.21; in assay [2], 6.42. Consider `Cc1cc(Nc2nc(Nc3cccc(S(N)(=O)=O)c3)ncc2F)cc(C)c1OC(C)C#N` (racemic) [Compound I-71, Racemic N2-(3-Aminosulfonyl)phenyl-N4-[4-(1-cyano)ethoxy-3,5-dimethyl]phenyl-5-fluoro-2,4-pyrimidinediamine], for which the pIC50 was 7.21 in assay [1] and 6.48 in assay [2]. On the same counts, the results for `Cc1ccc(Nc2ncc(F)c(Nc3cc(C)c(OC(C)C#N)c(C)c3)n2)cc1S(N)(=O)=O` (racemic) [Compound I-72, Racemic N2-(3-Aminosulfonyl-4-methyl)phenyl-N4-[4-(1-cyano)ethoxy-3,5-dimethyl]phenyl-5-fluoro-2,4-pyrimidinediamine] are 7.28 and 6.24. With `N#CCOc1cccc(Nc2nc(Nc3cccc(S(N)(=O)=O)c3)ncc2F)c1` [Compound I-4, N2-(3-Aminosulfonyl)phenyl-N4-(3-cyanomethoxy)phenyl-5-fluoro-2,4-pyrimidinediamine], the pIC50 in assay [1] was 7.31. For `Cc1cc(Nc2nc(Nc3ccc(F)c(S(N)(=O)=O)c3)ncc2F)ccc1OCC#N` [Compound I-34, N2-(3-Aminosulfonyl-4-fluoro)phenyl-N4-(4-cyanomethoxy-3-methyl)phenyl-5-fluoro-2,4-pyrimidinediamine], the pIC50 is 7.21 in assay [1] and 5.98 in assay [2].

Consider `Cc1cc(Nc2nc(Nc3ccc(F)c(S(N)(=O)=O)c3)ncc2F)cc(C)c1OCC#N` [Compound I-35, N2-(3-Aminosulfonyl-4-fluoro)phenyl-N4-(4-cyanomethoxy-3,5-dimethyl)phenyl-5-fluoro-2,4-pyrimidinediamine], for which the pIC50 in assay [1] is 7.33; in assay [2], 5.74.

On to `Cc1ccc(Nc2ncc(F)c(Nc3ccc(OCC#N)cc3)n2)cc1S(=O)(=O)NC(=O)C(C)C` [Compound I-37, N4-(4-Cyanomethyleneoxy)phenyl-5-fluoro-N2-(3-isobutyrylaminosulfonyl-4-methyl)phenyl-2,4-pyrimidinediamine], for which the pIC50 in assay [1] was 6.30; in assay [2], 5.24. On the same counts, the results for `Cc1ccc(Nc2ncc(F)c(Nc3ccc(OCC#N)c(Cl)c3)n2)cc1S(N)(=O)=O` [Compound I-43, N2-(3-Aminosulfonyl-4-methylphenyl)-N4-(3-chloro-4-cyanomethoxypheny)-5-fluoro-2,4-pyrimidinediamine] are 7.74 and 6.11.

Take `Cc1cnc(Nc2ccc(S(N)(=O)=O)cc2)nc1Nc1ccc(OCC#N)cc1` [Compound I-57, N2-(4-Aminosulfonylphenyl)-N4-(4-cyanomethoxyphenyl-5)-methyl-2,4-pyrimidinediamine]: the pIC50 in assay [1] was 7.67; in assay [2] it was 6.85. The matching figures for `Cc1ccc(Nc2ncc(F)c(Nc3ccc(OC(C)(C)C#N)cc3)n2)cc1S(N)(=O)=O` [Compound I-73, N2-(3-Aminosulfonyl-4-methyl)phenyl-N4-[4-(1-cyano-1-methyl)ethoxy]phenyl-5-fluoro-2,4-pyrimidinediamine]: 6.92 and 5.97. The matching figures for `CC(C)(C#N)Oc1ccc(Nc2nc(Nc3ccc(F)c(S(N)(=O)=O)c3)ncc2F)cc1` [Compound I-74, N2-(3-Aminosulfonyl-4-fluoro)phenyl-N4-[4-(1-cyano-1-methyl)ethoxy]phenyl-5-fluoro-2,4-pyrimidinediamine]: 6.61 and 5.76.

As to `CC(C)(C#N)Oc1ccc(Nc2nc(Nc3ccc(S(N)(=O)=O)cc3)ncc2F)cc1` [Compound I-75, N2-(4-Aminosulfonyl)phenyl-N4-[4-(1-cyano-1-methyl)ethoxy]phenyl-5-fluoro-2,4-pyrimidinediamine], the pIC50 was 6.70 in assay [1] and 5.51 in assay [2]. On the same counts, the results for `CC(C)(C#N)Oc1ccc(Nc2nc(Nc3cccc(S(N)(=O)=O)c3)ncc2F)cc1` [Compound I-76, N2-(3-Aminosulfonyl)phenyl-N4-[4-(1-cyano-1-methyl)ethoxy]phenyl-5-fluoro-2,4-pyrimidinediamine] are 7.00 and 5.95. Consider `Cc1ccc(Nc2ncc(F)c(Nc3ccc(NC(=O)CC#N)c(Cl)c3)n2)cc1S(N)(=O)=O` [Compound I-83, N2-(3-Aminosulfonyl-4-methylphenyl)-N4-[3-chloro-4-(N-cyanoacetyl)aminophneyl]-5-fluoro-2,4-pyrimidinediamine], for which the negative logarithm of the IC50 (pIC50) in assay [1] was 6.80. `Cc1ccc(Nc2ncc(F)c(Nc3cccc(OCC(N)=O)c3)n2)cc1S(N)(=O)=O` [Compound I-90, N4-(3-Aminocarbonylmethoxy)phenyl-N2-(3-aminosulfonyl-4-methyl)phenyl-5-fluoro-2,4-pyrimidinediamine]: the pIC50 in assay [1] is 6.40; in assay [2], 5.21. On the same counts, the results for `Cc1cc(Nc2nc(Nc3cccc(S(N)(=O)=O)c3)ncc2F)ccc1OCC(N)=O` [Compound I-92, N4-(4-Aminocarbonylmethoxy-3-methyl)phenyl-N2-(3-aminosulfonyl)phenyl-5-fluoro-2,4-pyrimidinediamine] are 6.78 and 4.81. The matching figures for `Cc1cc(Nc2nc(Nc3cccc(S(N)(=O)=O)c3)ncc2F)cc(C)c1OCC(N)=O` [Compound I-93, N4-(4-Aminocarbonylmethoxy-3,5-dimethyl)phenyl-N2-(3-aminosulfonyl)phenyl-5-fluoro-2,4-pyrimidinediamine]: 6.58 and 4.96. `Cc1ccc(Nc2ncc(F)c(Nc3ccc4c(c3)CCN4S(C)(=O)=O)n2)cc1S(N)(=O)=O` [VII-61, N2-(3-Aminosulfonyl-4-methylphenyl)-5-fluoro-N4-[4-(1-methylsulfonyl)indolin-5-yl]-2,4-pyrimidinediamine]: the pIC50 in assay [2] is 6.45.
